Data as given in patent publication US20230227466A1, “SUBSTITUTED THIENOPYRIMIDINES THAT INTERACT WITH THE RAS SUPERFAMILY FOR THE TREATMENT OF CANCERS, INFLAMMATORY DISEASES, RASOPATHIES, AND FIBROTIC DISEASE” (SHY Therapeutics, LLC, priority 2020, published 2023).

Assays:
Experiment in all cases: Cell proliferation assay (CellTiter 96 Aqueous One)
Type in all cases: cell-based
[1] = test system: A-549 NSCLC cell line (KRAS G12S); conditions: Homo sapiens; A549, 2-4 days, 10% FBS
Outline: (§1)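 Percent inhibition of proliferation is derived from MTS absorbance data. Cells seeded at 2000–5000 per well were grown overnight before treatment. Compounds, at 10 μM final or in dilution series, stayed on cells for 2–4 days in medium containing 10% FBS and 0.3% DMSO.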

[2] = test system: SW-620 colorectal cancer cell line (KRAS G12V); conditions: Homo sapiens; SW-620, 2-4 days, 10% FBS
Outline: as §1

[3] = test system: PANC-1 pancreatic cancer cell line (KRAS G12D); conditions: Homo sapiens; PANC-1, 2-4 days, 10% FBS
Outline: as §1

Row | SMILES | IC50 [1] [µM] | IC50 [2] [µM] | IC50 [3] [µM]
1 | COCC1CCN(c2nc(-c3nccn3C)nc3sc(-c4ccn(C(C)C)n4)c(C)c23)C1 (racemic) [Compound 38, rac-6-(1-Isopropyl-1H-pyrazol-3-yl)-4-(3-(methoxymethyl)pyrrolidin-1-yl)-5-methyl-2-(1-methyl-1H-imidazol-2-yl)thieno[2,3-d]pyrimidine] | 0.75 to 1 | 0.75 to 1 | 0.75 to 1
2 | COC[C@@H]1CC[C@@H]1CNc1nc(-c2nccn2C)nc2sc(-c3ccn(C(C)C)n3)c(C)c12 (racemic) [Compound 63, rac-6-(1-Isopropyl-1H-pyrazol-3-y)-N-(((1S,2R)-2-(methoxymethyl)cyclobutyl)methyl)-5-methyl-2-(1-methyl-1H-imidazol-2-yl)thieno[2,3-d]pyrimidin-4-amine] | 0.4 to 0.75 | < 0.4 | 0.4 to 0.75
3 | CO[C@@H]1CC[C@H](Nc2nc(-c3nccn3C)nc3sc(-c4ccn(C(C)C)n4)c(-c4ccccc4)c23)C1 [Example 4, 6-(1-isopropyl-1H-pyrazol-3-yl)-N-((1S,3R)-3-methoxycyclopentyl)-2-(1-methyl-1H-imidazol-2-yl)-5-phenylthieno[2,3-d]pyrimidin-4-amine] | 0.4 to 0.75 | 0.4 to 0.75 | < 0.4
